Results from patent US6869929B2, “Use of transcription factors for treating inflammation and other diseases” (Beth Israel Deaconess Medical Center, priority 2000, dated 2005).

Experiments:
[1] = test system: COX-2 promoter; test: COX-2 promoter luciferase construct (pXP2/COX-2) in RAW 264.7 cells; type: cell-based, human; details: luciferase 16 h
Method: Full-length and dominant-negative mutant ESE-1 cDNAs were inserted into the pCI (Promega) eukaryotic expression vector as described (Oettgen, P., et al. et al. 1997, Mol Cell Biol 17:4419-33). The human COX-2 promoter spanning −170 to +103, kindly provided by Dr. Leslie J. Crofford, University of Michigan, (14) was cloned into the pXP2 luciferase vector (pXP2/COX-2).
(§1) Cotransfections of 3-8×10^5 cells were carried out with 600 ng reporter gene construct DNA and 200 ng expression vector DNA using LipofectAMINE PLUS (Gibco-BRL) for 16 hours as described (Oettgen, P., et al. et al., 1997, Mol Cell Biol 17:4419-33). Transfections were performed independently in duplicate and repeated 3 to 4 times with different plasmid preparations with similar results.
We were interested to know which genes that are associated with inflammatory responses are targeted by ESE-1. We focused on the COX-2 gene, an important target for IL-1β, TNF-α, and LPS in inflammation. Furthermore, the COX-2 promoter contains multiple putative Ets binding sites that are potential targets for ESE-1. A COX-2 promoter luciferase construct, pXP2/COX-2, was transfected into RAW 264.7 cells in the absence or presence of the ESE-1 expression vector, pCI/ESE-1. ESE-1 enhanced COX-2 promoter activity more than 10-fold (FIG. 13a). […]

[2] = test system: COL2A1 promoter; test: COL2A1 promoter luciferase cotransfection in T/C-28a2 cells; type: cell-based, human; details: T/C-28a2; pGL3 construct; highest concentrations tested
Method: (§2) The COL2A1 sequence spanning −577 to +3428 bp (Goldring M B, et al, J Cell Biochem 1994;54:85-99, 39) was cloned into the pGL2-basic (pGL2B) luciferase reporter gene vector (Promega,) and named pGL2-COL2/4.0. Deletion constructs containing −577/+125 bp, −131/+125 bp, −87/+125 bp were prepared by enzyme digestion of pGL2-COL2/4.0 using PstI, ApaI, and PuuII, followed by ligation. For the deletion constructs −45/+125 bp, −83/+7 bp, and −45/+7 bp, PCR products were generated as described (Osaki et al.) and cloned into the pGL2-Basic luciferase vector. These reporter constructs were used as templates to generate point mutations or internal deletions by PCR mutagenesis employing the oligonucleotides listed in FIG. 16 and the QuikChange™ Site-Directed Mutagenesis Kit (Stratagene, La Jolla, Calif.). DNA fragments containing point mutations were then cloned into the pGL2B vector and confirmed by DNA sequencing using a G2 primer on pGL2 DNA. Deletions were also made in the −577/+127 bp COL2A1 promoter construct using the ExSite™ PCR-Based Site-Directed Mutagenesis Kit (Stratagene).
(§3) Transient transfection experiments were carried out in C-28/I2 cells using LipofectAMINE PLUS™ Reagent (Life Technologies). Cells were seeded in 6-well tissue culture plates at 3.5×10^5 cells/well in DMEM/F12 containing 10% FCS 24 h prior to transfection. For each well, 1 μg of COL2A1-luciferase construct, 6 μl of PLUS reagent and 92 μl of serum-free DMEM/F12 were mixed and incubated for 15 min at room temperature. LipofectAMINE+ reagent (4 μl) in 100 μl of serum-free medium was then added to each reaction mixture and incubation was continued for an additional 30 min at room temperature. Finally, the transfection mixture was combined with 800 μl of serum-free medium and the lipid-nucleic acid complex was transferred to the washed cell monolayer in each well. After incubation for 4 h at 37° C., the transfection mix was diluted with an equal volume of DMEM/F12 containing 2% Nutridoma-SP, and incubation continued for 18 h in the absence or presence of IL-1β. For cotransfections, the cells were incubated for 24 h to permit expression of recombinant proteins prior to treatment with IL-1β for a further 18 h. Cell lysates were prepared by extraction with 200 μl of Reporter Lysis Buffer (Promega) and the protein content was determined using the Coomassie Plus Protein Assay Reagent (PIERCE). Luciferase activities were determined by chemiluminescence assay using the Autolumat LB953 luminometer (EG&G Berthold, Oak Ridge, Tenn.), normalized to the amount of protein. Each data point was calculated as the mean±standard deviation for three independently transfected cultures from one representative of at least three experiments. […]

[3] = test system: ICAM-2 promoter; test: Cotransfection of ESE-1 with luciferase reporter constructs of potential target genes; type: cell-based; details: cotransfection of expression plasmid with luciferase reporter
Method: (§4) Co-transfections of 2×10^5 RAW cells or RASMCs were carried out with 0.6 μg reporter gene construct DNA and 0.6 μg expression vector DNA using 6 μl lipofectamine (Gibco-BRL) as described (Oettgen, P., et al. 1996. Characterization of NERF, a novel transcription factor related to the Ets factor ELF-1. Mol Cell Biol 16:5091-106). The cells were harvested 16 hours after transfection and assayed for luciferase activity. Transfections for every construct were performed independently in duplicates and repeated 3 times with two different plasmid preparations with similar results. Cotransfection of a second plasmid for determination of transfection efficiency was omitted because potential artifacts with this technique have been reported and because many commonly used viral promoters contain potential binding sites for ets factors (Farr, A., and A. Roman. 1992. A pitfall of using a second plasmid to determine transfection efficiency. Nucleic Acids Res 20:920).
In an attempt to identify target genes for ESE-1, the ability of ESE-1 to transactivate the promoters of several genes that are induced in response to inflammatory stimuli were tested. […] Transactivation of the ICAM-2 promoter by ESE-1 led to a 3.5 fold induction. […] The NOS2 gene promoter has two important regulatory regions, one that is upstream (−1100 to −800) and one that is in the more proximal promoter (−234 to +31). […]

[4] = test system: COL2A1 promoter; test: COL2A1 promoter/intron deletion constructs, transient transfection in C-28/I2 cells; type: cell-based, human
Method: as §2
as §3, with “For cotransfections, the cells were incubated for 24 h to permit expression of recombinant proteins prior to treatment with IL-1β for a further 18 h.” left out
To localize the responses to IL-1β and ESE-1 in the COL2A1 promoter, we made several 5′-deletions of the −577/+127 bp promoter construct, which we had previously determined to be responsive to IL-1β.

[5] = test system: NOS2 promoter; test: ESE-1 transactivation of NOS2 promoter luciferase reporter, cotransfection in RAW cells; type: cell-based, murine; details: cotransfection with NOS2 promoter
Method: (§5) A 1516 and 265 bp fragment corresponding to nucleotides (−1485 to +31) and (−234 to +31) of the murine NOS2 gene promoter were subcloned into the PGL2 luciferase reporter(Promega).
as §4
The ability of ESE-1 DN 1 to block transactivation of the NOS2 promoter was tested in RAW cells. Cotransfection of ESE-1 with the NOS2 promoter led to an approximate 12-fold increase in transactivation. […]

[6] = test system: ESE-1; test: ESE-1 mRNA RT-PCR in THP-1 monocytic cells; type: cell-based, human; details: THP-1 cells; within one hour
Method: U-87 Mg and U-138 Mg (human glioma), THP-1 (human monocytic), RAW 264.7 (murine monocytic), LB-12 (human osteoblast-like large T antigen transformed bone marrow stromal cells), and human chondrocytes were grown and treated with cytokines as described (Apperley, J., et al. 1990. J Bone Mineral Res. 5:S93; Goldring, M. B., et al. 1994. J Clin Invest 94:2307-16; Goldring, S. R., et al. 1983. J Bone Joint Surg 65:575-84; Libermann, T. A., et al. 1987. Embo J. 6:1627-1632).
cDNAs were generated from 1 μg of total RNA using Ready-To-Go™ You-prime First-Strand Beads (Amersham Pharmacia Biotech Inc). RT-PCR amplifications of 0.1 μg cDNA were carried out using a MJResearch thermal cycler PTC-100 as follows: 5 min at 94° C., 20-37 cycles of 30 sec at 94° C., 30 sec at 56° C., and 30 sec at 72° C., followed by 5 min at 72° C. (Oettgen, P., et al. 2000, J Biol Chem 275:1216-25). The sequences of the human ESE-1 primers and the primers for human GAPDH were as described (Oettgen, P., et al. 1999, J Biol Chem 274:29439-52).
Macrophages represent an additional cell type present within RA synovial tissues and are a major target of bacterial endotoxin. We, therefore, examined the effects of lipopolysaccharide (LPS) on ESE-1 expression in monocytes using the human monocytic cell line, THP-1 (FIG. 11e).

[7] = test system: ESE-1 promoter; test: ESE-1 promoter luciferase construct (pXP2/ESE-1) transfection; type: cell-based, human; details: RAW 264.7 cells; 16 h
Method: as §1
To investigate the molecular mechanism by which IL-1 β and LPS regulate ESE-1 expression, we examined the response of an ESE-1 promoter luciferase construct after transfection using two cytokine responsive non-epithelial cell types, U-138 MG human glial cells and RAW 264.7 cells, a murine macrophage cell line (Oettgen, P., et al. 1999, Genomics 55:358-62). Whereas the parental pXP2 vector was not stimulated by IL-1β, in U-138 MG cells, IL-1β increased ESE-1 promoter activity up to 5-fold (FIG. 12a). Similarly, LPS enhanced ESE-1 promoter activity ˜9-fold in RAW 264.7 cells (FIG. 12b).

[8] = test system: NOS2 promoter; test: LPS (endotoxin) induction of NOS2 promoter luciferase reporter in RAW cells; type: cell-based, murine; details: response to endotoxin (LPS)
Method: as §5, §4
In the presence of LPS, the ESE-1 DN1 protein blocked induction of the NOS2 promoter by LPS by approximately 70-75%. (See FIG. 21C).

Substance | induction of COX-2 promoter activity [1] | inhibition of COL2A1/4.0 activity [2] [%] | induction of the ICAM-2 promoter [3] [fold] | response of -131/+127 and -83/+127 bp constructs [4] | inhibition of -577/+127, -530/+127, -403/+127 bp constructs ([4]; 200 ng, highest amount) | increased expression of pGL2P+2370/+2672 and pGL2B-28/+2122 constructs ([4]; overexpression) [fold] | increase in transactivation of the NOS2 promoter [5] [fold] | ESE-1 expression [6] | increase in ESE-1 promoter activity [7] [fold] | increase in NOS2 promoter activity [8] [fold]
ESE-1: full-length Ets transcription factor ESE-1 overexpressed from the pCI expression vector | more than 10 fold | 20 | 3.5 | did not respond | levels of inhibition similar to IL-1β | ~10 | ~12 |  |  | 
lipopolysaccharide [LPS] | more than 20 fold |  |  |  |  |  |  | induced ESE-1 expression | ~9 | ~14
